The assay deals with T1, TRPC4 (Homo sapiens, UniProt Q9UBN4).
T1 construct: expressed in transfected cells
T1 sequence (Q9UBN4 1-982 isoform Q9UBN4-5): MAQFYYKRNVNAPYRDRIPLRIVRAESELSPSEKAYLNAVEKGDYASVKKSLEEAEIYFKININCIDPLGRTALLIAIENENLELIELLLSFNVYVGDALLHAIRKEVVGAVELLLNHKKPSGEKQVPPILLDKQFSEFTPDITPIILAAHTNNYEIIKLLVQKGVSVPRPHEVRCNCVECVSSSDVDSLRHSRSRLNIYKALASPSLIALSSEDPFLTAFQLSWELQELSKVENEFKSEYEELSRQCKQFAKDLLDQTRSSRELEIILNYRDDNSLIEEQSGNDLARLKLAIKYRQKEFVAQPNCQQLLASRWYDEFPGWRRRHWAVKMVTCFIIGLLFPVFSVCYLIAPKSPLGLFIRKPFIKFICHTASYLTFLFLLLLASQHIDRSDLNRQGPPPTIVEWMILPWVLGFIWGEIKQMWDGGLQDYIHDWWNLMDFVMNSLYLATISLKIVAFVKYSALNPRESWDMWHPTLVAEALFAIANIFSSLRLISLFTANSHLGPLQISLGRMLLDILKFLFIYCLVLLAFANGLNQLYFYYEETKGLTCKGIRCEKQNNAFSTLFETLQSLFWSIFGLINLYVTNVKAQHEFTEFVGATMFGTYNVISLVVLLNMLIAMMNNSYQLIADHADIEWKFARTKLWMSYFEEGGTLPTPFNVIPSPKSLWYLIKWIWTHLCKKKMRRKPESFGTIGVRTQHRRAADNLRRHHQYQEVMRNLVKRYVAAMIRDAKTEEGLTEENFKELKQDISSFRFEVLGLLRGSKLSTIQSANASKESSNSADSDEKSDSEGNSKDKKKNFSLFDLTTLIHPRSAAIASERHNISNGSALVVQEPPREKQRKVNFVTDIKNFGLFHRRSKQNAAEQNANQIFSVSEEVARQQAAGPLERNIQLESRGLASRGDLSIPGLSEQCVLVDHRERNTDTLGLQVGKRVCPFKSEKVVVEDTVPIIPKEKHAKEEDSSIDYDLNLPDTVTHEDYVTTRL
Kind of assay: TRPC4 activity assay (FLIPR calcium fluorescence, HEK-TREx hTRPC4 cells). It counts as cell-based. As to the method: ICLN-1694 cells (HEK-TREx hTRPC4) expressing TRPC4 were generated as follows. Commercially available HekTrex-293 cells were seeded at 0.7×10^6 cells/well in a 1×6-well plate 24 hrs prior to transfection using 2 mL cell growth media containing no antibiotics (lx DMEM/high glucose (Hyclone #SH30022.02); 10% fetal bovine serum (Sigma) 2 mM sodium pyruvate, 10 mM HEPES). […] On day 2, 2 μg of plasmid DNA plus 6 μl of Xtreme-GENE HP reagent in Optimem (200 μl total volume) was prepared and incubated for 15 min at room temperature. This plasmid solution was then gently overlayed dropwise onto each well and the plate was gently swirled to mix complex with the media for approximately 30 seconds. Transfected cells were incubated at 37° C. in a 10% CO2 incubator for 24 hrs. The transfected cells were harvested and transferred into 2×150 mm dishes containing cell growth media with no antibiotics at 37° C.
The next day selection was initiated to generate a stable pool by adding cell growth media containing 150 μg/mL Hygromycin and 5 μg/mL Blasticidin and cells were allowed to grow. Media with the selection agent was changed every 1-2 days as needed to remove dead cells. After 7 days, the hygromycin concentration was reduced to 75 μg/mL and cells growth was allowed to continue.
Single clones were selected as follows. The stable pool was diluted to 10 cells/mL and seeded (100 μl/well) into 24×96 well plates (˜1 cell/well) and allowed to grow for 7 days in cell growth media. Fresh media (100 μl) was added and the cells allowed to grow for another 1-2 weeks and then stored frozen or used immediately.
10-point dose response curves were generated using the Echo-550 acoustic dispenser. Compound source plates were made by serially diluting compound stocks to create 10 mM, 1 mM, and 0.1 mM solutions in DMSO into Echo-certified LDV plates. The Echo then serially spotted 100% DMSO stock solutions into source dose response plates to generate a 4-fold dilution scheme. 100% DMSO was added to the spotted dose response plates to bring the final volume to 5 μl. 300 nl of the dose response stock plate was then spotted into pre-incubation and stimulation assay plates. 50 μl of pre-incubation buffer and 100 μl of stimulation buffer was then added to the plates resulting in a final assay test concentration range of 30 μM to 0.0001 μM with a final DMSO concentration of 0.3%.
ICLN-1694 cells (HEK-TREx hTRPC4) were plated onto 384 well, black pdl-coated microplates and maintained in cell growth media supplemented with 1 μg/mL tetracycline the day prior to use for experiments. TRPC4 expression was induced by the application of 1 μg/mL tetracycline at the time of plating. […] Cells were incubated at room temperature, protected from light, for 60-90 minutes. After the incubation period, the dye was removed and replaced with 10 μl of EBSS. Cell, pre-incubation and stimulation plates were loaded onto the FLIPR-II and the assay was initiated. The FLIPR measured a 10 second baseline and then added 10 μl of 2× compounds (or controls). Changes in fluorescence were monitored for an additional 5 minutes. After a 5 minute pre-incubation, 20 μl of 2× Englerin A (with 1× compound or controls) was added to the cell plate. The final Engerlin A stimulation concentration in the assay was 100 nM. After the Englerin A addition, changes in fluorescence were monitored for an additional 5 minutes.
Compound modulation of TRPC4 calcium response was determined as follows. After the Englerin A, fluorescence was monitored for a 5-minute period. The maximum relative fluorescence response (minus the control response of 1 μM of an internal control compound known to maximally block TRPC4 calcium response, the “REF INHIB” in the formula below) was captured and exported from the FLIPR.
Compound effect is calculated as % inhibition using the following formula: […]
wherein “RFU” is the relative fluorescent units.

The mark [1] stands for this setting: Table 7, HEK-TREx hTRPC4, read-out: TRPC4-FLIPR IC50.
Setting [2] is: Table 5, HEK-TREx hTRPC4, read-out: TRPC4 FLIPR IC50.
Setting [3] is: Table 6, HEK-TREx hTRPC4, read-out: hTRPC4-FLIPR IC50.

Structures are written as SMILES. Read-outs that look alike come from different tables or passages of the source.

Regarding `CN1CCN(Cc2nn(Cc3ccccc3C(F)F)c3c2CN(c2cn[nH]c(=O)c2Cl)CC3)CC1` [OU, 4-Chloro-5-(1-[[2-(difluoromethyl)phenyl]methyl]-3-[(4-methylpiperazin-1-yl)methyl]-1H,4H,5H,6H,7H-pyrazolo[4,3-c]pyridin-5-yl)-2,3-dihydropyridazin-3-one], the half-inhibitory concentration (IC50) under setting [1] lay within 0.01 to 1000 nM.

With `CN1CCN(C(=O)c2nn(Cc3ccccc3C(F)F)c3c2CN(c2cn[nH]c(=O)c2Cl)CC3)CC1` [OM], the IC50 under setting [1] was 0.01 to 1000 nM.

On to `CCc1ncccc1N(CC)C1CCN(c2cn[nH]c(=O)c2Cl)CC1` [LW, 4-chloro-5-[4-[ethyl(2-ethylpyridin-3-yl)amino]piperidin-1-yl]-2,3-dihydropyridazin-3-one], for which the IC50 under setting [2] was 0.01 to 1000 nM and the half-inhibitory concentration (IC50) under setting [3] lay in the range of 0.01 to 1000 nM.

With `NC(=O)c1nn(Cc2ccccc2C(F)(F)F)c2c1CN(c1cn[nH]c(=O)c1Cl)CC2` [OP, 5-(5-Chloro-6-oxo-1,6-dihydropyridazin-4-yl)-1-[[2-(trifluoromethyl)phenyl]methyl]-1H,4H,5H,6H,7H-pyrazolo[4,3-c]pyridine-3-carboxamide], the 50% inhibitory concentration (IC50) was 0.01 to 1000 nM under setting [2] and 0.01 to 1000 nM under setting [1].

As for `CCc1ncccc1[C@H](C)N1CCN(c2cn[nH]c(=O)c2Cl)CC1` [LY, 4-chloro-5-[4-[(1S)-1-(2-ethylpyridin-3-yl)ethyl]piperazin-1-yl]-2,3-dihydropyridazin-3-one], the IC50 was in the range of 0.01 to 1000 nM under setting [2] and 0.01 to 1000 nM under setting [3].

As for `CN(C)C(=O)c1nc2c(n1Cc1ccccc1C(F)(F)F)CCN(c1cn[nH]c(=O)c1Cl)C2` [PW], the half-inhibitory concentration (IC50) under setting [2] lay in the range of 0.01 to 1000 nM and the half-maximal inhibitory concentration (IC50) under setting [1] is 0.01 to 1000 nM.

For `CC(c1ccc(F)cc1C(F)(F)F)N1CCN(c2cn[nH]c(=O)c2Cl)CC1=O` (single isomer, unassigned) [MF], the IC50 under setting [3] was in the range of 0.01 to 1000 nM.

Take `O=C1CN(c2cn[nH]c(=O)c2Cl)CCN1Cc1ccccc1C(F)(F)F` [AO]: the IC50 under setting [2] lay in the range of 0.01 to 1000 nM.

For `C[C@@H]1Cc2c(nnn2[C@H](C)c2ccccc2C(F)(F)F)CN1c1cn[nH]c(=O)c1Cl` [MX, 4-chloro-5-[(6R)-6-methyl-1-[(1R)-1-[2-(trifluoromethyl)phenyl]ethyl]-1H,4H,5H,6H,7H-[1,2,3]triazolo[4,5-c]pyridin-5-yl]-2,3-dihydropyridazin-3-one], the 50% inhibitory concentration (IC50) by setting is: under setting [2], 0.01 to 1000 nM; under setting [1], 0.01 to 1000 nM.

For `CN(c1ncc2c(n1)CN(c1cn[nH]c(=O)c1Cl)C2)c1ccccc1C(F)(F)F` [QM], the IC50 under setting [2] was in the range of 0.01 to 1000 nM and the half-inhibitory concentration (IC50) under setting [1] is 0.01 to 1000 nM.

Usually IC50 stands for the concentration that gives 50% inhibition.
